The target of experiment [1] is T1, CFTR ΔF508 mutant (Homo sapiens, UniProt P13569, DEL508-508).
T1 construct: expressed in transfected cells; host or cells: CFBE41o- cells, adenoviral transduction
Kind of experiment: YFP-halide influx assay for the CFTR-ΔF508 mutation (CFBE41o- cells). The experiment is classed as cell-based. The settings on record: forskolin 10.67 μM; for EC50: from (1−F/F0) vs concentration plot. Put shortly: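 CFBE41o- cells transduced with adenovirus expressing CFTR ΔF508 and halide-sensitive YFP H148Q/I152L/F47L, then held 24 h at 27° C or with a CFTR modulator 24 h at 37° C. Iodide-induced quench recorded 2 min; EC50 from (1−F/F0) at 36 s versus concentration.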

Experiment [2] has as its target T2, CFTR G551D mutant (Homo sapiens, UniProt P13569, G551D).
T2 construct: expressed in transfected cells; host or cells: HEK293 cells, reverse transfection with plasmids
Kind of experiment: YFP-halide influx assay for the CFTR-G551D mutation (HEK293 cells). The experiment is classed as cell-based. The settings on record: forskolin 10.67 μM. The gist of the method: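 HEK293 cells reverse-transfected with CFTR G551D and halide-sensitive YFP (H148Q/I152L/F47L), expressed 24 h at 37 °C. YFP fluorescence quenching recorded for 7 s after I⁻ injection. Response = 1−F/F0; EC50 derived from 1−F/F0 vs compound concentration.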

This note sets out measurements from US10047051B2, “Substituted pyridines and method of use” (AbbVie S.á{acute over (.)}r.l., priority 2015, dated 2018).

T2 sequence (P13569 whole entry G551D): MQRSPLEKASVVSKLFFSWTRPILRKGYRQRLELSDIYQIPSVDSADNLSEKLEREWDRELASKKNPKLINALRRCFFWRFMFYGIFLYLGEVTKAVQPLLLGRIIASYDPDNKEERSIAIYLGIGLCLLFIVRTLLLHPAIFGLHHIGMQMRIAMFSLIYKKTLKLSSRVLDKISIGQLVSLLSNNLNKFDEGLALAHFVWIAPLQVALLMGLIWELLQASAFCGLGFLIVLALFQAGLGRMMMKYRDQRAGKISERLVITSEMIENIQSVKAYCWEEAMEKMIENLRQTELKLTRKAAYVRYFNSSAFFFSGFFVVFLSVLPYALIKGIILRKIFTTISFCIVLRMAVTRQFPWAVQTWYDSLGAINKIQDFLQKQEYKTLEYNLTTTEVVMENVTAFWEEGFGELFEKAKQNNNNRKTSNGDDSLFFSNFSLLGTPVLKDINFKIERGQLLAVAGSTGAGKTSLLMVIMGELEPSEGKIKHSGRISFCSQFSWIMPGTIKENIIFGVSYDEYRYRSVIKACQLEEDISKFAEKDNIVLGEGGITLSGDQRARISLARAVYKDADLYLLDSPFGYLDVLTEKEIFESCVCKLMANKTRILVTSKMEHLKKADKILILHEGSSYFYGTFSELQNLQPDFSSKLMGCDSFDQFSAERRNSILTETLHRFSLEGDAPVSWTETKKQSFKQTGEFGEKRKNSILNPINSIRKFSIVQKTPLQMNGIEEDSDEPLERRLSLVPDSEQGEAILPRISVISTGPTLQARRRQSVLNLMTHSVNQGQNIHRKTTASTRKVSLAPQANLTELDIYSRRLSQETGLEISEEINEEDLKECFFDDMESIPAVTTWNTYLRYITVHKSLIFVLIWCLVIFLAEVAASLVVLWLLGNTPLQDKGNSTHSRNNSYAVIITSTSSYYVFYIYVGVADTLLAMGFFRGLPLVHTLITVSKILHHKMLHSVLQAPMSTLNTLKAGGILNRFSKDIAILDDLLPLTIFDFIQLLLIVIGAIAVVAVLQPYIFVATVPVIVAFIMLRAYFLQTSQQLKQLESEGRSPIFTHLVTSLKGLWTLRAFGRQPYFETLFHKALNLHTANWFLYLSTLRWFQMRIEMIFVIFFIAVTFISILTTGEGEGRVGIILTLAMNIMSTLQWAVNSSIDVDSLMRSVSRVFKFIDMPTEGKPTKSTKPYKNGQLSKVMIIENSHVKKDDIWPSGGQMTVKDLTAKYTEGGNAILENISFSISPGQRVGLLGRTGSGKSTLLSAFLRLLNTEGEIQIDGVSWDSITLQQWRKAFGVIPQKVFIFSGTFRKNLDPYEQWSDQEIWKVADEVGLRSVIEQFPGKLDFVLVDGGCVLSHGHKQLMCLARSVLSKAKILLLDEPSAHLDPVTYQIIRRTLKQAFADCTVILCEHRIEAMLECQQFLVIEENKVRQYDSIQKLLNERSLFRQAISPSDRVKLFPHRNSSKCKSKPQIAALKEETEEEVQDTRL
T1 sequence (P13569 with tags, fused parts or gaps DEL508-508): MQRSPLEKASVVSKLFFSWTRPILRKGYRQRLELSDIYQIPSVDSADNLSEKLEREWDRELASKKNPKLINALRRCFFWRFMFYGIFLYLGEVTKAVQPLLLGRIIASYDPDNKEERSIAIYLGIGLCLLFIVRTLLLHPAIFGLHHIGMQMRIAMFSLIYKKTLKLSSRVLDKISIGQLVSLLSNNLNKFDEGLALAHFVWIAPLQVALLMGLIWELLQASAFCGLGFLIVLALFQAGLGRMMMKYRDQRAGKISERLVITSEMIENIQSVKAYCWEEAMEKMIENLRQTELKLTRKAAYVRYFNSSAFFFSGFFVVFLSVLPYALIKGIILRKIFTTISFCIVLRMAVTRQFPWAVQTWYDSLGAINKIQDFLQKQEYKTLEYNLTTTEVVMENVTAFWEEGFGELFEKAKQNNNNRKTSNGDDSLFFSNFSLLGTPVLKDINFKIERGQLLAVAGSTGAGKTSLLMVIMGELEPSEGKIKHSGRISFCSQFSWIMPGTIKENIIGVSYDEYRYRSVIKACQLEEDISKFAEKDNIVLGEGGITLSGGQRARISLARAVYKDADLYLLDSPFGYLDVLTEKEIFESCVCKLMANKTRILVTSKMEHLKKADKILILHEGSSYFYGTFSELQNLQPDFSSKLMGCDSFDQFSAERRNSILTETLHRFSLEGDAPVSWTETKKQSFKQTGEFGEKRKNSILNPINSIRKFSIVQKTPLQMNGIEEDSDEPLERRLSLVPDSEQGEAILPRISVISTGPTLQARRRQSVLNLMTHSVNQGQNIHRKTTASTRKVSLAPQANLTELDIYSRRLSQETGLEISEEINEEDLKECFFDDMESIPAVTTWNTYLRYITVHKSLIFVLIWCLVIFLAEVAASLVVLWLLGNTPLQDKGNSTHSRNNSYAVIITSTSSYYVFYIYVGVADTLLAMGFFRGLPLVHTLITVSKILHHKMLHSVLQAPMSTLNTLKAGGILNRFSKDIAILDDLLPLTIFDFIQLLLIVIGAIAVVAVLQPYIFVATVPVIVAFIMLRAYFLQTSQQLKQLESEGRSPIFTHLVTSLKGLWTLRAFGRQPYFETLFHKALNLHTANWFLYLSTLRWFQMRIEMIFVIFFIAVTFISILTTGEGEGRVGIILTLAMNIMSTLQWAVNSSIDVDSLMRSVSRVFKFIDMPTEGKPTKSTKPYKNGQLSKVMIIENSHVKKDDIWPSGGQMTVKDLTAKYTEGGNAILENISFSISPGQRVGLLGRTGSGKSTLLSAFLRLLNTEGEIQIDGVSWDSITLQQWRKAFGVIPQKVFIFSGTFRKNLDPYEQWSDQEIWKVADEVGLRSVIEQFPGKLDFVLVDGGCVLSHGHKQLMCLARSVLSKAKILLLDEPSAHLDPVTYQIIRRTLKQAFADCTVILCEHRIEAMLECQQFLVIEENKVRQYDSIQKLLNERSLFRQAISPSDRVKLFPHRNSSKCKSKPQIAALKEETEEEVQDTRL

For the compound `CC(C)(C)OCC(O)CNC(=O)c1ncc(S(=O)(=O)c2ccc(C(F)(F)F)cc2F)cc1N` (stereo not shown) [Compound 224, 3-amino-N-(3-tert-butoxy-2-hydroxypropyl)-5-{[2-fluoro-4-(trifluoromethyl)phenyl]sulfonyl}pyridine-2-carboxamide], the entries for the “% Activation” value in experiment [1] and in experiment [2] were 106.0% and 80.6%, respectively. For the same compound, the results for the concentration for a half-maximal effect (EC50) in experiment [1] and in experiment [2] were 8.1 nM and 276 nM, respectively.
Taken in the same sequence, the figures for `CN(Cc1ccc(F)c(F)c1)S(=O)(=O)c1cnc(C(=O)NCC(O)C(F)(F)F)c(N)c1` (stereo not shown) [Compound 136, 3-amino-5-[(3,4-difluorobenzyl)(methyl)sulfamoyl]-N-(3,3,3-trifluoro-2-hydroxypropyl)pyridine-2-carboxamide] were 113.7%, 53.4%, 2.9 nM and more than 3330 nM.
For `Nc1cc(S(=O)(=O)c2ccc(OC(F)(F)F)cc2)cnc1C(=O)NC1CCOC1` (stereo not shown) [Compound 127, 3-amino-N-(tetrahydrofuran-3-yl)-5-{[4-(trifluoromethoxy)phenyl]sulfonyl}pyridine-2-carboxamide], in experiment [1], the “% Activation” value was 107.0% and the response was half-maximal at 82.9 nM (EC50). For the same compound, in experiment [2], the “% Activation” value is 61.2% and the 50% effective concentration (EC50) was 1880 nM.
Turning to `Nc1cc(S(=O)(=O)c2ccc(OC(F)(F)F)cc2)cnc1C(=O)N[C@@H]1CCCOC1` [Compound 140, 3-amino-N-[(3R)-tetrahydro-2H-pyran-3-yl]-5-{[4-(trifluoromethoxy)phenyl]sulfonyl}pyridine-2-carboxamide], in experiment [1], the “% Activation” value is 97.7% and the response was half-maximal at 51 nM (EC50). Further, in experiment [2], the “% Activation” value stood at 39.9% and the concentration for a half-maximal effect (EC50) was more than 10000 nM.
Consider `Nc1cc(S(=O)(=O)c2ccc(OC(F)(F)F)cc2)cnc1C(=O)NCCC1OCCO1` [Compound 147, 3-amino-N-[2-(1,3-dioxolan-2-yl)ethyl]-5-{[4-(trifluoromethoxy)phenyl]sulfonyl}pyridine-2-carboxamide], for which, in experiment [1], the “% Activation” value is on record as 105.5% and the EC50 was found to be 40.9 nM. In experiment [2], the “% Activation” value was determined as 69.0% and the EC50 stood at 1280 nM.
On to `Cc1ccc(S(=O)(=O)c2cnc(C(=O)NCC(O)C(F)(F)F)c(N)c2)cc1` (stereo not shown) [Compound 245, 3-amino-5-[(4-methylphenyl)sulfonyl]-N-(3,3,3-trifluoro-2-hydroxypropyl)pyridine-2-carboxamide], for which the results for the “% Activation” value in experiment [1] and in experiment [2] were 114.0% and 80.8%, respectively. Further, the half-maximal effective concentration (EC50) was found to be 5.6 nM in experiment [1] and 395 nM in experiment [2].
For `COCC(O)CNC(=O)c1ncc(S(=O)(=O)c2ccc(C(F)(F)F)cc2)cc1N` (stereo not shown) [Compound 239, 3-amino-N-(2-hydroxy-3-methoxypropyl)-5-{[4-(trifluoromethyl)phenyl]sulfonyl}pyridine-2-carboxamide], in that order: 95.8%, 76.5%, 29.5 nM and 1050 nM.
`CC1CC(C)CN(S(=O)(=O)c2cnc(C(=O)NCC(O)C(F)(F)F)c(N)c2)C1` (stereo not shown) [Compound 185, 3-amino-5-[(3,5-dimethylpiperidin-1-yl)sulfonyl]-N-(3,3,3-trifluoro-2-hydroxypropyl)pyridine-2-carboxamide]: in experiment [1], the “% Activation” value is 111.3% and the half-maximal effective concentration (EC50) amounted to 2.9 nM. In experiment [2], the “% Activation” value came out at 69.4% and the 50% effective concentration (EC50) was 1120 nM.
Take `Nc1cc(S(=O)(=O)CC2CCCO2)cnc1C(=O)NCC(O)C(F)(F)F` (stereo not shown) [Compound 238, 3-amino-5-[(tetrahydrofuran-2-ylmethyl)sulfonyl]-N-(3,3,3-trifluoro-2-hydroxypropyl)pyridine-2-carboxamide]: in experiment [1], the “% Activation” value stood at 53.7% and the EC50 worked out at 538 nM. For the same compound, in experiment [2], the “% Activation” value is 4.8% and the EC50 was more than 10000 nM.
As for `Nc1cc(S(=O)(=O)c2ccc(OC(F)(F)F)cc2)cnc1C(=O)NCCN1CCOCC1` [Compound 9, 3-amino-N-[2-(morpholin-4-yl)ethyl]-5-{[4-(trifluoromethoxy)phenyl]sulfonyl}pyridine-2-carboxamide], the “% Activation” value in experiment [1] came out at 97.5%; in experiment [2], 59.5%. The values for the EC50 in experiment [1] and in experiment [2] were 161 nM and more than 3330 nM, respectively.
Taken in the same sequence, the figures for `CC[C@@H](CO)NC(=O)c1ncc(S(=O)(=O)c2ccc(C(F)(F)F)cc2)cc1N` [Compound 234, 3-amino-N-[(2S)-1-hydroxybutan-2-yl]-5-{[4-(trifluoromethyl)phenyl]sulfonyl}pyridine-2-carboxamide] were 102.4%, 46.1%, 39.3 nM and 1090 nM.
With `Nc1cc(S(=O)(=O)c2ccc(OC(F)(F)F)cc2)cnc1C(=O)N1CC[C@@H](F)C1` [Compound 204, (3-amino-5-{[4-(trifluoromethoxy)phenyl]sulfonyl}pyridin-2-yl)[(3R)-3-fluoropyrrolidin-1-yl]methanone], in experiment [1], the “% Activation” value is 92.5% and a half-maximal response (EC50) required 177 nM. In experiment [2], the “% Activation” value was determined as 73.9% and the EC50 is more than 3330 nM.
`CC1CN(C(=O)c2ncc(S(=O)(=O)c3ccc(OC(F)(F)F)cc3)cc2N)C1` [Compound 126, (3-amino-5-{[4-(trifluoromethoxy)phenyl]sulfonyl}pyridin-2-yl)(3-methylazetidin-1-yl)methanone]: in experiment [1], the “% Activation” value was 92.9% and the half-maximal effective concentration (EC50) stood at 64.9 nM. Further, in experiment [2], the “% Activation” value turned out to be 62.2% and the EC50 was found to be 1470 nM.
Consider `CC[C@@H](CO)NC(=O)c1ncc(S(=O)(=O)c2ccc(OC(F)(F)F)cc2)cc1N` [Compound 142, 3-amino-N-[(2S)-1-hydroxybutan-2-yl]-5-{[4-(trifluoromethoxy)phenyl]sulfonyl}pyridine-2-carboxamide], for which the “% Activation” value worked out at 97.9% in experiment [1] and 44.7% in experiment [2]. Further, the EC50 in experiment [1] came to 11.9 nM; in experiment [2], 399 nM.
Turning to `C[C@H](O)CNC(=O)c1ncc(S(=O)(=O)NCc2ccc(F)cc2)cc1N` [Compound 267, 3-amino-5-[(4-fluorobenzyl)sulfamoyl]-N-[(2S)-2-hydroxypropyl]pyridine-2-carboxamide], in experiment [1], the “% Activation” value worked out at 59.3% and the EC50 was more than 667 nM. In experiment [2], the “% Activation” value was 0.9% and the EC50 was more than 10000 nM.
Taken in the same sequence, the figures for `CC(C)C1(O)CN(C(=O)c2ncc(S(=O)(=O)c3ccc(C(F)(F)F)cc3F)cc2N)C1` [Compound 162, (3-amino-5-{[2-fluoro-4-(trifluoromethyl)phenyl]sulfonyl}pyridin-2-yl)[3-hydroxy-3-(propan-2-yl)azetidin-1-yl]methanone] were 101.8%, 2.7 nM, 68.0% and 255 nM.
For `Nc1cc(S(=O)(=O)c2ccc(C(F)(F)F)cc2)cnc1C(=O)N1CCC[C@@H]1CO` [Compound 233, (3-amino-5-{[4-(trifluoromethyl)phenyl]sulfonyl}pyridin-2-yl) [(2R)-2-(hydroxymethyl)pyrrolidin-1-yl]methanone], in that order: 44.9%, 1390 nM, 5.4% and more than 10000 nM.
As for `CC(C)COCC(O)CNC(=O)c1ncc(S(=O)(=O)c2ccc(OC(F)(F)F)cc2F)cc1N` (stereo not shown) [Compound 171, 3-amino-5-{[2-fluoro-4-(trifluoromethoxy)phenyl]sulfonyl}-N-[2-hydroxy-3-(2-methylpropoxy)propyl]pyridine-2-carboxamide], the entries for the “% Activation” value in experiment [1] and in experiment [2] were 103.7% and 86.4%, respectively. For the same compound, the half-maximal effective concentration (EC50) turned out to be 8.7 nM in experiment [1] and 991 nM in experiment [2].
For `Nc1cc(S(=O)(=O)c2ccc(OC(F)(F)F)cc2)cnc1C(=O)N[C@H]1CCOC1` [Compound 144, 3-amino-N-[(3S)-tetrahydrofuran-3-yl]-5-{[4-(trifluoromethoxy)phenyl]sulfonyl}pyridine-2-carboxamide], in that order: 92.6%, 50.6%, 76.1 nM and 1120 nM.
For `Nc1cc(S(=O)(=O)c2ccc(OC(F)(F)F)cc2)cnc1C(=O)NC[C@@H](O)CO` [Compound 50, 3-amino-N-[(2R)-2,3-dihydroxypropyl]-5-{[4-(trifluoromethoxy)phenyl]sulfonyl}pyridine-2-carboxamide], in that order: 90.8%, 23.5%, 57.5 nM and more than 10000 nM.
In the case of `CC(C)COCC(O)CNC(=O)c1ncc(S(=O)(=O)c2ccc(C(F)(F)F)cc2)cc1N` (stereo not shown) [Compound 166, 3-amino-N-[2-hydroxy-3-(2-methylpropoxy)propyl]-5-{[4-(trifluoromethyl)phenyl]sulfonyl}pyridine-2-carboxamide], in experiment [1], the “% Activation” value stood at 111.7% and the concentration giving a half-maximal response (EC50) was found to be 17.5 nM. Besides, in experiment [2], the “% Activation” value is recorded as 69.3% and the EC50 amounted to 661 nM.
For `COc1ccnc(CNC(=O)c2ncc(S(=O)(=O)N3CCC[C@@H]3C)cc2N)n1` [Compound 281, 3-amino-N-[(4-methoxypyrimidin-2-yl)methyl]-5-{[(2S)-2-methylpyrrolidin-1-yl]sulfonyl}pyridine-2-carboxamide], in that order: 89.4%, 167 nM, 50.0% and more than 3330 nM.
